Laboratory results reported in patent US8329739B2, “Phenylimidazole compounds” (Otsuka Pharmaceutical Factory, Inc., priority 2009, dated 2012).

Legend:
[1] = biological target: T1, LPL (lipoprotein lipase) (Mus musculus, UniProt P11152); assay: Confirmation test of LPL activation effect in mouse skeletal muscle cells (C2C12 cells); format: cell-based; details: 8 hours exposure, vs control group
T1 construct: endogenous in cells; host or cells: C2C12 cells, differentiated
T1 sequence (P11152 28-474): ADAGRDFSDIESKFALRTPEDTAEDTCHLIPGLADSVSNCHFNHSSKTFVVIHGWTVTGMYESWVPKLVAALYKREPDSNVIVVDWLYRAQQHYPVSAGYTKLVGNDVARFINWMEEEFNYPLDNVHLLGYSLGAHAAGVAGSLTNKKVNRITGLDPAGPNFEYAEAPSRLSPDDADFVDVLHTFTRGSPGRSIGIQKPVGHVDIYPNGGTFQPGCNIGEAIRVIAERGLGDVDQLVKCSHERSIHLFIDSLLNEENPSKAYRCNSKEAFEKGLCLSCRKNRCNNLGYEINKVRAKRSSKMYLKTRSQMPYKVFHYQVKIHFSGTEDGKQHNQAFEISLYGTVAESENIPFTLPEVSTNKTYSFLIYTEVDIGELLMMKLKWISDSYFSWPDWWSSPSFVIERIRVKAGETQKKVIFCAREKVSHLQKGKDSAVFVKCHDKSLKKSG
Method in brief: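 Differentiated human skeletal muscle myoblasts or mouse C2C12 cells were exposed to compound at 10 μM or 30 μM in 0.3% DMSO medium for 8 h, then LPL was released with heparin-containing Tris-HCl buffer (10 min, 37° C). Supernatant LPL activity was taken as the fluorescence increase 10–70 min after adding substrate; % increase is calculated versus the DMSO control mean.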

[2] = Confirmation test of anti-obesity action in dietary-obese mice; format: in vivo; details: AKR/J mice on high-fat diet (60% kcal fat), 20 mg/kg orally every day for 4 weeks, vs control group
Experimental: AKR/J mice were used. These mice were fed a high-fat diet with 60% kcal fat, and a model of dietary obesity was developed. 5% aqueous gum arabic suspension, which was prepared such that the dosage of a compound of the present invention was 20 mg/kg body weight, was orally administered to the experimental group of obese mice in an amount of 5 ml/kg body weight. […] The mice were grouped according to body weight. The test suspension was administered everyday at a fixed time for 4 weeks. Body weight was measured during the period of oral administration, and the body weight gain-inhibiting effect was confirmed. The rate of body weight reduction (%) was calculated from the measured body weights of mice in the control group and the experimental group, according to the following formula. […] Rate of body weight reduction (%)=[(mean value of the control group)−(mean value of the experimental group)]/(mean value of the control group)×100

[3] = Body weight gain-inhibiting effect in normal SD rats; format: in vivo; details: Rattus norvegicus, po, 100 mg/kg orally every day for 5 days or 2 weeks, vs control group, read-out: Rate of inhibition of body weight gain (%)
Experimental: (§1) 8-week-old SD rats (Japan Charles River: average body weight of about 350 g) were used. 5% aqueous gum arabic suspension, which was prepared such that the dosage of a compound of the present invention was 100 mg/kg body weight, was orally administered to the experimental group in an amount of 5 ml/kg body weight. 5% aqueous gum arabic suspension (not containing any compounds of the present invention) was orally administered to the control group in an amount of 5 ml/kg body weight. The rats were grouped according to their body weight at 8 weeks of age such that each group had 5 rats. The test compounds were orally administered every day at a fixed time for 5 days or 2 weeks, starting when the rats were 9 weeks old. Body weight was regularly measured during the period of oral administration, and the body weight gain-inhibiting effect was observed. 4 hours after the final administration of the test compound, blood was collected from the vein, plasma was separated from the collected blood, and blood biochemical examinations (triglyceride, HDL-cholesterol) were carried out.
The rate of inhibition of body weight gain (%) was calculated from the measured body weights of rats in the control group and the experimental group, according to the following formula. […] Rate of inhibition of body weight gain (%)=[(mean value of the control group)−(mean value of the experimental group)]/(mean value of the control group)×100

[4] = biological target: T2, LPL (lipoprotein lipase) (Homo sapiens, UniProt P06858); assay: Confirmation test of LPL activation effect in human skeletal muscle cells; format: cell-based; details: 8 hours exposure, vs control group
T2 construct: endogenous in cells; host or cells: human skeletal muscle myoblasts, differentiated
T2 sequence (P06858 28-475): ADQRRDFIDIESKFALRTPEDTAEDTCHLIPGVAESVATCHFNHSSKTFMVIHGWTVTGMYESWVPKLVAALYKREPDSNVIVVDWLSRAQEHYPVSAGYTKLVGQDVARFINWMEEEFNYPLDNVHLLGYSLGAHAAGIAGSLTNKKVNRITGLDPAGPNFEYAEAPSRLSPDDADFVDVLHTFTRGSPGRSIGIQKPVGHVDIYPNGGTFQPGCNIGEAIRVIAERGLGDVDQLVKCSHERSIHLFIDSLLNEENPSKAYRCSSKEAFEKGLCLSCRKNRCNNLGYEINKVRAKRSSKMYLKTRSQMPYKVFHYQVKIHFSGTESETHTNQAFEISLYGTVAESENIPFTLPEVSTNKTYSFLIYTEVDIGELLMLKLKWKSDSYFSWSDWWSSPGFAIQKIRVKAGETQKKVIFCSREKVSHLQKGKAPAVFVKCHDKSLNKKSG
Experimental: Human skeletal muscle cells (human skeletal muscle myoblasts) or mouse skeletal muscle cells (C2C12 cells) that were seeded onto plates, cultured, and differentiated were exposed to a 0.3% dimethyl sulfoxide-containing culture medium in which the compound of the present invention was dissolved (concentration: 10 μM or 30 μM). The medium was removed 8 hours after exposure, 10 mM of Tris-HCl buffer (150 mM NaCl, 10 μ/mL; containing heparin sodium) was added to the cells, and the cells were incubated at 37° C. in the presence of 5% CO2 for 10 minutes. LPL activity in the supernatant was measured using an LPL activity assay kit (made by Roar Biomedical Inc.). LPL activity was evaluated based on the increase in fluorescence intensity 10 to 70 minutes after mixing the supernatant with the LPL substrate. The mean value of the increase in fluorescence intensity of the cells exposed to a 0.3% dimethyl sulfoxide-containing culture medium […] was used as mean value of the control group. Note that the compounds of Examples 18, 19, 32, 45 and 57 were tested using human skeletal muscle cells, and other compounds were tested using mouse skeletal muscle cells. The rate of increase (%) was calculated from the measured values of LPL activity in the control group and the experimental group, according to the following formula. Rate of increase in LPL activity (%)=[(mean value of the experimental group)−(mean value of the control group)]/(mean value of the control group)×100

[5] = Lipid-improving action in SD rats: blood biochemical examinations (triglyceride, HDL-cholesterol); format: in vivo; details: Rattus norvegicus, po, 100 mg/kg orally every day for 5 days or 2 weeks, plasma 4 hours after final administration, vs control group, read-out: Rate of increase in HDL-cholesterol levels (%)
Experimental: as §1
Blood biochemical examinations of rats in the control group and the experimental group were performed. The rates of change (%) were calculated according to the following formulae from the measured values obtained from the blood biochemical examinations. […] Rate of decrease in triglyceride levels (%)=[(mean value of the control group)−(mean value of the experimental group)]/(mean value of the control group)×100 Rate of increase in HDL-cholesterol levels (%)=[(mean value of the experimental group)−(mean value of the control group)]/(mean value of the control group)×100

COc1cc(OCc2ccc(Br)cc2F)ccc1-c1c[nH]c(-c2cccs2)n1.Cl [Example 23]
melting point: 249 to 253 °C
Rate of increase in LPL activity ([1]; amount of addition 10 μM): 40%
Rate of increase in LPL activity ([1]; amount of addition 30 μM): 95%
Rate of body weight reduction (%) [2]: 13%

COc1cc(-c2c[nH]c(-c3ccc(C(F)(F)F)cc3)n2)ccc1OCc1ccc(Cl)cc1 [Example 32]
inhibition in vivo at 100 mg/kg [3]: 8%
melting point: 158 to 159 °C
Rate of body weight reduction (%) [2]: 11%
Rate of increase in LPL activity ([4]; amount of addition 10 μM): 22%
Rate of increase in LPL activity ([4]; amount of addition 30 μM): 57%
change in vivo at 100 mg/kg [5]: 16%

COc1cc(OCc2ccc(Br)cc2F)ccc1-c1c[nH]c(-c2ccc(C)cc2)n1 [Example 84]
inhibition in vivo at 100 mg/kg [3]: 8%
melting point: 160 to 162 °C
Rate of increase in LPL activity ([1]; amount of addition 10 μM): 53%
Rate of increase in LPL activity ([1]; amount of addition 30 μM): 97%
change in vivo at 100 mg/kg [5]: 187%

COc1cc(OCc2ccc(C#N)cc2)ccc1-c1c[nH]c(-c2cccc(C(F)(F)F)c2)n1.Cl [Example 74]
inhibition in vivo at 100 mg/kg [3]: 6%
melting point: 248 to 250 °C
Rate of increase in LPL activity ([1]; amount of addition 10 μM): 10%
Rate of increase in LPL activity ([1]; amount of addition 30 μM): 55%
change in vivo at 100 mg/kg [5]: 64%

COc1cc(-c2c[nH]c(-c3cccs3)n2)ccc1OCc1ccc(Br)cc1F [Example 67]
inhibition in vivo at 100 mg/kg [3]: 7%
melting point: 177 to 179 °C
Rate of increase in LPL activity ([1]; amount of addition 10 μM): 22%
Rate of increase in LPL activity ([1]; amount of addition 30 μM): 34%
change in vivo at 100 mg/kg [5]: 15%

COc1cc(OCc2ccc(Br)cc2F)ccc1-c1c[nH]c(-c2ccc(F)cc2)n1.Cl [Example 57]
inhibition in vivo at 100 mg/kg [3]: 14%
melting point: > 250 °C
Rate of body weight reduction (%) [2]: 17%
Rate of increase in LPL activity ([4]; amount of addition 10 μM): 19%
Rate of increase in LPL activity ([4]; amount of addition 30 μM): 40%
change in vivo at 100 mg/kg [5]: 184%

COc1cc(OCc2ccc(Cl)cc2)ccc1-c1c[nH]c(-c2ccsc2)n1.Cl [Example 70]
inhibition in vivo at 100 mg/kg [3]: 14%
melting point: 238 to 241 °C
Rate of increase in LPL activity ([1]; amount of addition 10 μM): 22%
Rate of increase in LPL activity ([1]; amount of addition 30 μM): 87%
change in vivo at 100 mg/kg [5]: 34%

COc1cc(OCc2ccc(Br)cc2F)ccc1-c1c[nH]c(-c2ccc(C(F)(F)F)cc2)n1 [Example 18]
inhibition in vivo at 100 mg/kg [3]: 13%
melting point: 167 to 170 °C
Rate of increase in LPL activity ([4]; amount of addition 10 μM): 23%
Rate of increase in LPL activity ([4]; amount of addition 30 μM): 23%
change in vivo at 100 mg/kg [5]: 171%

COc1cc(-c2c[nH]c(-c3ccc(F)cc3)n2)ccc1OCc1ccc(Br)cc1F.Cl [Example 52]
inhibition in vivo at 100 mg/kg [3]: 6%
melting point: 228 to 233 °C
change in vivo at 100 mg/kg [5]: 36%

COc1cc(OCc2ccc(Cl)cc2)ccc1-c1c[nH]c(-c2ccc(C(F)(F)F)cc2)n1 [Example 19]
inhibition in vivo at 100 mg/kg [3]: 11%
melting point: 158 to 162 °C
Rate of increase in LPL activity ([4]; amount of addition 10 μM): 24%
Rate of increase in LPL activity ([4]; amount of addition 30 μM): 28%
change in vivo at 100 mg/kg [5]: 99%

COc1cc(OCc2ccc(C#N)cc2)ccc1-c1c[nH]c(-c2ccc(F)cc2)n1.Cl [Example 45]
inhibition in vivo at 100 mg/kg [3]: 12%
melting point: 189 to 191 °C
Rate of body weight reduction (%) [2]: 11%
Rate of increase in LPL activity ([4]; amount of addition 10 μM): 23%
Rate of increase in LPL activity ([4]; amount of addition 30 μM): 32%
change in vivo at 100 mg/kg [5]: 27%

COc1cc(-c2c[nH]c(-c3cccc(F)c3)n2)ccc1OCc1ccc(C#N)cc1 [Example 59]
melting point: 205 to 209 °C
Rate of increase in LPL activity ([1]; amount of addition 10 μM): 22%
Rate of increase in LPL activity ([1]; amount of addition 30 μM): 73%

COc1cc(-c2c[nH]c(-c3ccc(C(C)(C)C)cc3)n2)ccc1OCc1ccccc1 [Example 28]
melting point: 138 to 141 °C
Rate of increase in LPL activity ([1]; amount of addition 10 μM): 30%
Rate of increase in LPL activity ([1]; amount of addition 30 μM): 53%

COc1cc(-c2c[nH]c(-c3ccccc3)n2)ccc1OCc1ccc(Br)cc1F.Cl [Example 3]
melting point: 224 to 226 °C
Rate of increase in LPL activity ([1]; amount of addition 10 μM): 43%
Rate of increase in LPL activity ([1]; amount of addition 30 μM): 62%
